From patent publication US20220387483A1, “USE OF IODIDE COMPOUNDS FOR THE TREATMENT AND PREVENTION OF CHEMOTHERAPY-ASSOCIATED CACHEXIA AND CARDIOTOXICITY” (FARADAY PHARMACEUTICALS, INC., priority 2019, published 2022) come the findings set out here.

Assay [1] relates to Balb/c mice bearing subcutaneous CT26 tumors. Put plainly: cancer cachexia model of Balb/c mice bearing subcutaneous CT26 tumors. It counts as in vivo. The conditions noted are these: for TNF-α level / creatine kinase level / serum LDL level / serum triglyceride level / % tumor grow inhibition (TGI) / serum VLDL level: vs vehicle control; for % tumor grow inhibition (TGI): day 20; for IL-6 level / kidney weight / lung weight / spleen weight / serum levels of TNF-α: test groups vs vehicle control; for IL-6 level: FIG. 10B; for kidney weight / lung weight / spleen weight / serum levels of TNF-α: significance; for serum levels of TNF-α: FIG. 10A; for body weight: throughout the experimental period. The procedure:
(§1) The anti-cachectic activity of iodide was evaluated in a cancer cachexia model of Balb/c mice bearing subcutaneous CT26 tumors. NaI was administered as FDY-5301, which is sodium iodide solubilized in water and balanced with sodium chloride to create an isotonic saline solution, with a pH between 7.0 and 9.5. As shown in the experimental design depicted in FIG. 1, when tumor volume reached 100 mm^3, the mice were either left untreated, or treated with one of the following: (i) vehicle control (0.5% CMC); (ii) NaI (FDY-5301) at 2 mg/kg i.v., QD×3 weeks; (iii) bucindolol at 2 mg/kg p.o., QD×3 weeks; or (iv) NaI (FDY-5301) at 40 ug/day slow release via Alzet osmotic pump (flow rate 0.11 uL/h) s.c. for 20 days. On day 14, 1 hour post dosing, blood samples were taken from three animals from groups 2, 3, and 5. On day 20, the animals were humanely euthanized and tumor and animal characteristics were measured. Prior to euthanasia, blood samples were collected for evaluation of biochemical parameters. Following euthanasia, tumor tissue and organs, muscles were collected and weighed.

Assay [2] deals with cardiotoxicity induced by doxorubicin. Put plainly: cardiotoxicity induced by doxorubicin chemotherapy, ejection fraction via ultrasound. It is filed as in vivo, C57Bl/6 mice. The procedure: Male C57Bl/6 mice (˜10 weeks old) were given a 15 mg/kg i.p. bolus of doxorubicin to induce cardiotoxicity. Assessment of ejection fraction was performed via ultrasound at baseline (day 0, prior to any doxorubicin administration) and on days 3, 7, 14 or 28 days post administration. Dosing of placebo or FDY-5301 was done in a blinded fashion, as was all ultrasound analysis.
A single 2 mg/kg i.v. bolus of FDY-5301 was administered by the retro orbital (r.o.) route and immediately followed by 15 mg/kg doxorubicin i.p. Placebo treated animals received saline. A Vevo® 2100 imaging system was used to assess cardiac function on days 0 (baseline), 7, 14, & 28.
A single 2 mg/kg i.v. bolus of NaI was administered by the retro orbital (r.o.) route followed immediately by the s.c. implantation of an osmotic pump designed to deliver 2 mg/kg/day of NaI. The mice then received a 15 mg/kg doxorubicin i.p. bolus. Placebo treated animals received saline (and an osmotic pump filled with saline). Cardiac function was assessed on days 0 (baseline), 3, 7 & 14.

Assay [3] has as its system Balb/c mice bearing subcutaneous CT26 tumors. Put plainly: muscle histology and morphometry (muscle fiber area) in the CT26 cancer cachexia model. To be noted: for muscle fiber area, gastrocnemius / muscle fiber area, soleus: histopathological images vs vehicle control; for muscle fiber area, tibialis anterior: vs vehicle control. It is filed as in vivo. The procedure:
as §1
Morphometric evaluation of transverse sections of muscle fiber area (um2) was performed on tibialis anterior, gastrocnemius, and soleus muscles from the animals described in Example 1, for evaluation of anti-cachectic properties of FDY-5301 and bucindolol in the cancer cachexia model.

Where [4] appears, read: slow release via Alzet osmotic pump.

With `[I-].[Na+]` [FDY-5301, sodium iodide], in assay [1] (2 mg/kg i.v.), the TNF-α level result was “non-significantly lower”, the creatine kinase level result is given as “marginal decrease”, the “serum LDL level” value is given as “non-significant change” and the serum triglyceride level entry is given as “marginally lower”. The “% tumor grow inhibition (TGI)” value in assay [1] (40 ug/day slow release via Alzet osmotic pump s.c.) came to 23%. In assay [1] (2 mg/kg i.v., QD×3 weeks), the “% tumor grow inhibition (TGI)” value worked out at 31% and the body weight entry was “progressive body weight gain”. In assay [1] (setting [4]), the TNF-α level entry was “marginally higher”, the “serum LDL level” value was “significant increase”, the “serum VLDL level” value is on record as “significant decrease” and the serum triglyceride level result is “significantly lower”. Also, the body weight result in assay [1] (setting [4]) is “progressive body weight gain”. The creatine kinase level result in assay [1] (slow release) is recorded as “marginal decrease”. In assay [1], the IL-6 level entry was “Non-significant”, the kidney weight entry is reported as “Non-significant”, the lung weight result is reported as “Non-significant” and the spleen weight result is recorded as “Non-significant”. In assay [1], the “serum levels of TNF-α” value is “Non-Significant”. Moreover, in assay [2] (2 mg/kg i.v. bolus + s.c. osmotic pump 2 mg/kg/day, 15 mg/kg doxorubicin i.p., by day 14, vs placebo), the “ejection fraction (EF)” value was “stabilized EF”. Also, the ejection fraction entry in assay [2] (combined results of bolus and bolus + continuous studies, delivered at the time of chemotherapy) is “prevents a significant reduction in ejection fraction”. In addition, in assay [2] (single 2 mg/kg i.v. bolus then 15 mg/kg doxorubicin i.p., days 7, 14, 28, vs placebo), the “change in ejection fraction from baseline” value is given as “less of a reduction in change in ejection fraction from baseline”. Moreover, in assay [3] (40 ug/day Alzet pump), the “muscle fiber area, gastrocnemius” value is reported as “increased muscle fiber area” and the “muscle fiber area, soleus” value is reported as “increased muscle fiber area”. Besides, the “muscle fiber area, tibialis anterior” value in assay [3] (40 ug/day slow release via Alzet osmotic pump) is given as “significant increase”. Moreover, the “muscle fiber area, tibialis anterior” value in assay [3] (40 ug/day slow release via Alzet osmotic pump, listed as FDY-3501) is listed as “increased muscle fiber area”. In assay [3] (2 mg/kg i.v.), the “muscle fiber area, gastrocnemius” value is listed as “increased muscle fiber area”; the “muscle fiber area, soleus” value was “increased muscle fiber area”; the “muscle fiber area, tibialis anterior” value is “Non-significant”. Further, the “muscle fiber area, tibialis anterior” value in assay [3] (2 mg/kg i.v., listed as FDY-3501) is given as “increased muscle fiber area”.

Consider `CC(C)(Cc1c[nH]c2ccccc12)NCC(O)COc1ccccc1C#N` (stereo not shown) [bucindolol, reference compound], for which, in assay [1] (2 mg/kg p.o.), the TNF-α level entry is reported as “marginally higher”, the creatine kinase level result is recorded as “higher level”, the “serum LDL level” value was “non-significant change” and the “serum VLDL level” value is reported as “significant decrease”. Besides, the serum triglyceride level entry in assay [1] (bucindolol 2 mg/kg p.o.) was “significantly lower”. In assay [1] (2 mg/kg p.o., QD×3 weeks), the “% tumor grow inhibition (TGI)” value is on record as 24% and the body weight result is on record as “progressive body weight gain”. Besides, in assay [1], the IL-6 level entry is listed as “Non-significant”, the kidney weight entry is listed as “Non-significant”, the lung weight entry was “Non-significant” and the spleen weight result is given as “Non-significant”. Besides, the “serum levels of TNF-α” value in assay [1] was “Non-Significant”. Also, in assay [3] (2 mg/kg p.o.), the “muscle fiber area, gastrocnemius” value is listed as “increased muscle fiber area” and the “muscle fiber area, soleus” value is recorded as “increased muscle fiber area”.
